From paper PMC8401404 (Molecules, 2021)
Structures can show the parent of a compound that is named as a salt. Where two headings read alike, the source gives them in different places.

Columns and labels:
A549 [1] = assay: MTS cytotoxicity assay, 2D cell culture; conditions: read-out: Cytotoxicity Assay IC50 ± SD, A549 2D, 72 h, MTS, n = 2
Procedure: (§1) MTS assay gives us information about the number of living cells, in this case, metabolically active cells, whereas the BrdU proliferation assay gives a measure of the cell population in active division phase. Both assays were performed in 2D and 3D assay formats. For the 2D cell assay format, we used classic two-dimensional in vitro assays and as a 3D assay we used a hanging drop proliferation cell assay as previously described. We explored the activity of compounds on three human lung cancer cell lines, A549, HCC827 and NCI-H358. The compound activity was also tested on human lung fibroblast cell line MRC-5. A two-dimensional in vitro viability assay was performed on the MRC-5 cell line to see if tested compounds are cytotoxic on normal cell lines in low concentrations. […] 7.1.
(§2) Test compounds were synthesized by a research group at the Department of Organic Chemistry, Faculty of Chemical Engineering and Technology, University of Zagreb. […] Compounds were diluted 1:3. We transferred 500 nL (for 2D cell culture) or 400 nL (for 3D cell culture) of the compound from a mother plate to test plate by using Mosquito (TTP labtech). DMSO percentage in test concentrations was 0.5–1.0%. Starting concentration of the test compounds and standard compound doxorubicin was 50 µM (2D cell culture) or 100 µM (3D cell culture).
(§3) Cells were grown in 96-well cell star polystyrene plates. We seeded 10,000 cells/well in wells 4 h prior to the treatment with different compounds concentrations and incubated for 72 h. A cell viability assay was performed according to the manufacturer’s instructions, using CellTiter 96 aqueous solution, MTS kit (Promega, Madison, WI, USA). After 0.5–2 h of cell incubation with MTS in 2D cell culture, the plates were read using PE EnVision absorbance at 490 nm.
(§4) Calculation of IC50 data, curves and QC analysis was performed by using Excel tools and GraphPadPrism software (La Jolla, CA, USA), v. […] QC criteria parameters (Z’, S:B, R2, HillSlope) were checked for every IC50 curve.

HCC827 [2] = assay: MTS cytotoxicity assay, 2D cell culture; conditions: read-out: Cytotoxicity Assay IC50 ± SD, HCC827 2D
Procedure: as §1, §2, §3, §4

NCI-H358 [3] = assay: MTS cytotoxicity assay, 2D cell culture; conditions: read-out: Cytotoxicity Assay IC50 ± SD, NCI-H358 2D
Procedure: as §1, §2, §3, §4

A549 [4] = assay: Cytotoxicity (viability) assay, 3D hanging drop cell culture; conditions: read-out: Cytotoxicity Assay IC50 ± SD, A549 3D
Procedure: as §1, §2
(§5) Cells were grown in 96-well Perfecta 3D hanging drop plates 5000 cell/well for 4 days until spheres were formed (and checked under the microscope). After sphere formation cells were treated with compounds followed by 72 h incubation. Cell viability assay was performed according to the manufacturer’s instructions, using CellTiter GLO 3D for 3D cell culture (Promega); cell incubation was 5 min on the shaker followed by 25 min incubation in the dark. Plates were read using PE EnVision luminescence.
as §4

HCC827 [5] = assay: as above; conditions: read-out: Cytotoxicity Assay IC50 ± SD, HCC827 3D
Procedure: as §1, §2, §5, §4

NCI-H358 [6] = assay: as above; conditions: read-out: Cytotoxicity Assay IC50 ± SD, NCI-H358 3D
Procedure: as §1, §2, §5, §4

[7] = MTS cytotoxicity assay, 2D cell culture, normal lung fibroblasts; conditions: human, MRC-5 normal lung fibroblasts, 2D culture
Procedure: as §1, §2, §3, §4

A549 [8] = assay: BrdU proliferation assay, 2D cell culture; type: cell-based, human; conditions: A549, 2D, BrdU, n = 2, read-out: Proliferation Assay IC50 ± SD
Procedure: as §1, §2, §3
(§6) Proliferation assay was performed using Cell Proliferation ELISA, BrdU (Sigma, St. Louis, MO, USA). Briefly, 48 h hours after compound addition, 10 µM of BrdU was added to each well and incubated for the following 24 h. After incubation, a single cell suspension was made for 3D cell culture in the new 96-well plate. Plates were centrifuged and supernatants were removed from each plate (for 2D and 3D cell culture) followed by 60 min incubation at 60 °C. The rest of the proliferation assay was performed according to the manufacturer’s instructions.
as §4

HCC827 [9] = assay: BrdU proliferation assay, 2D cell culture; type: cell-based, human; conditions: HCC827, 2D, BrdU, n = 2, read-out: Proliferation Assay IC50 ± SD
Procedure: as §1, §2, §3, §6, §4

NCI-H358 [10] = assay: BrdU proliferation assay, 2D cell culture; type: cell-based, human; conditions: NCI-H358, 2D, n = 2, read-out: Proliferation Assay IC50 ± SD
Procedure: as §1, §2, §3, §6, §4

A549 [11] = assay: BrdU proliferation assay, 3D hanging drop cell culture; type: cell-based, human; conditions: A549, 3D, BrdU, n = 2, read-out: Proliferation Assay IC50 ± SD
Procedure: as §1, §2, §5, §6, §4

HCC827 [12] = assay: as above; type: cell-based, human; conditions: HCC827, 3D, BrdU, n = 2, read-out: Proliferation Assay IC50 ± SD
Procedure: as §1, §2, §5, §6, §4

NCI-H358 [13] = assay: as above; type: cell-based, human; conditions: NCI-H358, 3D, n = 2, read-out: Proliferation Assay IC50 ± SD
Procedure: as §1, §2, §5, §6, §4

E. coli ATCC 25922 = assay: Broth microdilution testing (CLSI); type: cell-based, Escherichia coli; conditions: broth microdilution, 16–24h at 37 °C, read-out: MIC E. coli ATCC 25922
Procedure: (§7) Broth microdilution testing was performed according to CLSI (Clinical Laboratory Standards Institute) guidelines. MIC (minimal inhibitory concentration) value was defined as the last tested concentration of compound at which there is no visible growth of bacteria. […] Clinical and Laboratory Standards Institute (CLSI) guidelines.

S. aureus ATCC 29213 = assay: Broth microdilution testing (CLSI); type: cell-based, Staphylococcus aureus; conditions: 16–24h at 37 °C, read-out: MIC S. aureus ATCC 29213
Procedure: as §7

S. cerevisiae ATCC 7752 = assay: Broth microdilution testing (CLSI); type: cell-based, Saccharomyces cerevisiae; conditions: broth microdilution, 16–24h at 37 °C, read-out: MIC S. cerevisiae ATCC 7752
Procedure: as §7

ctDNA = assay: Thermal melting experiments; type: binding, calf; conditions: r = [compound]/[polynucleotide] = 0.3, pH 7.0, sodium cacodylate buffer I = 0.05 mol dm^−3; error ±0.5 °C
Description: (§8) The thermal stability of helices is usually affected by the non-covalent binding of small molecules to double-stranded nucleic acids. We determined the ΔTm value (the difference between the Tm value of free polynucleotide and a complex with a small molecule) for complexes of selected compounds with ctDNA and an alternating polynucleotide, poly(dAdT)2. […] Because of this, we determined ΔTm value with non-alternating AT-DNA, poly dA-poly dT as well.

poly dA-poly dT = assay: Thermal melting experiments; type: binding; conditions: r = 0.3, pH 7.0, sodium cacodylate buffer I = 0.05 mol dm^−3; error ±0.5 °C
Description: as §8

poly(dAdT)2 = assay: Thermal melting experiments; type: binding; conditions: r = 0.3, pH 7.0, sodium cacodylate buffer I = 0.05 mol dm^−3; error ±0.5 °C
Description: as §8

calf thymus DNA (ctDNA) = assay: Fluorimetric titrations with ctDNA; conditions: fluorescence titrations, Scatchard equation, pH 7.0, sodium cacodylate buffer I = 0.05 mol dm-3
Procedure: The UV/vis spectra were recorded on a Varian Cary 100 Bio spectrophotometer, CD spectra on JASCO J815 spectrophotometer and fluorescence spectra on a Varian Cary Eclipse spectrophotometer.
Spectrophotometric titrations were performed at pH = 7 (I = 0.05 mol dm^−3, sodium cacodylate buffer) by adding portions of polynucleotide solution into the solution of the studied compound for fluorimetric experiments and CD experiments were performed by adding portions of the compound stock solution into the solution of a polynucleotide. In fluorimetric experiments excitation wavelengths of λexc = 350, 370 and 390 nm were used to avoid the inner filter effect caused due by increasing absorbance of the polynucleotide (Figures S3 and S4). Emission was collected in the range λem = 400–600 nm (SI).
aTitration data were processed using Scatchard equation, correlation coefficients were >0.97-
0.99 for all calculated Ks

[14] = Solubility in water (stock solutions)
[15] = system: poly(dAdT)2 (DNA, polymer) AT; assay: CD titration; conditions: Na+ (sodium cacodylate, I = 0.05 M), pH 7.0, 25 °C, polynucleotide 3.0 × 10^-5 M
[16] = system: poly(dAdT)2 (DNA, polymer) AT; assay: UV thermal melting at 260 nm; conditions: Na+ (sodium cacodylate, I = 0.05 M), pH 7.0, r = [compound]/[polynucleotide phosphate] = 0.3, error ±0.5, per base
[17] = system: poly dA-poly dT (DNA, polymer) A/T; assay: UV thermal melting at 260 nm; conditions: Na+ (sodium cacodylate, I = 0.05 M), pH 7.0, r = [compound]/[polynucleotide phosphate] = 0.3, error ±0.5, per base
[18] = system: human lung fibroblast cell line MRC-5; assay: MTS cytotoxicity assay, 2D cell culture, normal lung fibroblasts; conditions: read-out: Cytotoxicity Assay IC50 ± SD; MRC-5 2D; MRC-5 normal lung fibroblasts, 2D, 72 h, MTS; n = 2
Procedure: as §1, §2, §3, §4

[19] = Staphylococcus aureus, ATCC29213, broth microdilution
[20] = Saccharomyces cerevisiae, ATCC7752

| Compound | IC50 (A549 [1]; Homo sapiens, A549, 72 h) [µM] | IC50 (HCC827 [2]; Homo sapiens, HCC827, 72 h) [µM] | IC50 (NCI-H358 [3]; Homo sapiens, NCI-H358, 72 h) [µM] | IC50 (A549 [4]; Homo sapiens, A549, 72 h) [µM] | IC50 (HCC827 [5]; Homo sapiens, HCC827, 72 h) [µM] | IC50 (NCI-H358 [6]; Homo sapiens, NCI-H358, 72 h) [µM] | IC50 at 72 h [7] [µM] | IC50 (A549 [8]; Homo sapiens) [µM] | IC50 (HCC827 [9]; Homo sapiens) [µM] | IC50 (NCI-H358 [10]; Homo sapiens) [µM] | IC50 (A549 [11]; Homo sapiens) [µM] | IC50 (HCC827 [12]; Homo sapiens) [µM] | IC50 (NCI-H358 [13]; Homo sapiens) [µM] | MIC (E. coli ATCC 25922; Escherichia coli, ATCC25922) [µM] | MIC (S. aureus ATCC 29213; [19]) [µM] | MIC (S. cerevisiae ATCC 7752; [20]) [µM] | ΔTm ctDNA (ctDNA) [°C] | ΔTm Poly dA-poly dT (poly dA-poly dT) [°C] | ΔTm poly (dAdT)2 (poly(dAdT)2) [°C] | Binding constants (logKs) with ctDNA (calf thymus DNA (ctDNA)) | other results |
| --- | --- | --- | --- | --- | --- | --- | --- | --- | --- | --- | --- | --- | --- | --- | --- | --- | --- | --- | --- | --- | --- |
| CC(C)NC(=N)c1ccc2nc(-c3ccc(-c4ccc(Cl)cc4)o3)sc2c1 [Compound 8, 2-[5-(4-Chlorophenyl)furan-2-yl]-6-N-isopropilamidinobenzothiazole hydrochloride] | 6.75 ± 0.19 | 6.26 ± 0.33 | 6.48 ± 0.11 | 9.31 ± 0.78 | 20.5 ± 8.63 | 16 ± 9.38 | 9.88 ± 2.38 | 8.78 ± 3.62 | 13.5 ± 0.81 | 6.68 ± 0.15 | 19.9 ± 2.19 | 17.8 ± 4.24 | 11.3 ± 0.49 | > 100 | 12.5 | 6.25 | 1.7 | 4.3 | 3.6 | 6.3 | IC50 (A549 [1]): 6.74 ± 0.19 µM; solubility [14]: 3000 µM |
| Cl.Clc1ccc(-c2ccc(-c3nc4ccc(C5=NCCN5)cc4s3)o2)cc1 [Compound 9, 2-[5-(4-Chlorophenyl)furan-2-yl]-6-(4,5-Dihydro-1H-imidazol-2-yl)benzothiazole hydrochloride] | 4.39 ± 0.79 | 5.9 ± 0.58 | 4.48 ± 0.3 | 16.8 ± 2.61 | 20 ± 7.92 | 15.49 ± 0.07 | 6.65 ± 0.18 | 9.97 ± 5.37 | 8.69 ± 2.79 | 5.57 ± 0.81 | 17 ± 3.53 | 20.3 ± 13.9 | 6.39 ± 3.29 | > 100 | 25 | 3.13 | 1.8 | 15.2 | 4.6 | 6.1 | melting point: 293 to 297 °C; binding [15]: yes; ΔTm [16]: 4.6 °C; ΔTm [17]: 15.2 °C; solubility [14]: 1320 µM |
| N#CC(=Cc1ccc(-c2ccc([N+](=O)[O-])cc2)o1)c1nc2cc([N+](=O)[O-])ccc2[nH]1 [Compound 18, (E,Z)-2-(5(6)-Nitrobenzimidazol-2-yl)-3-[5-(4-nitrophenyl)furan-2-yl]acrylonitrile] |  |  |  |  |  |  |  |  |  |  |  |  |  |  |  |  |  |  |  |  | IC50 (A549 [1]): > 50 µM; IC50 (HCC827 [2]; 72 h, MTS, n = 2): > 50 µM; IC50 (NCI-H358 [3]; 72 h, MTS, n = 2): 3.5 ± 1.14 µM; IC50 (A549 [4]; A549, 3D hanging drop spheres, 72 h, n = 2): > 100 µM; IC50 (HCC827 [5]; HCC827, 3D hanging drop spheres, 72 h, n = 2): > 100 µM; IC50 (NCI-H358 [6]; NCI-H358, 3D hanging drop spheres, 72 h, n = 2): > 100 µM; IC50 [18]: > 50 µM; IC50 (A549 [8]): > 50 µM; IC50 (HCC827 [9]): > 50 µM; IC50 (NCI-H358 [10]): > 50 µM; IC50 (A549 [11]): > 100 µM; IC50 (HCC827 [12]): > 100 µM; IC50 (NCI-H358 [13]): > 100 µM; MIC (E. coli ATCC 25922): >100 µM; MIC (S. aureus ATCC 29213; broth microdilution): >100 µM; MIC (S. cerevisiae ATCC 7752): >100 µM |
| CC(C)NC(=N)c1ccc2nc(-c3ccc(-c4ccc([N+](=O)[O-])cc4)o3)sc2c1 [Compound 5, 2-[5-(4-Nitrophenyl)furan-2-yl]-6-N-isopropilamidinobenzothiazole hydrochloride] | 8.76 ± 1.69 | 19.3 ± 1.72 | 9.97 ± 0.59 | 26.4 ± 13.4 | 43.6 ± 6.45 | 14.8 ± 0.57 | 21.7 ± 0.51 | 4.76 ± 1.03 | 13.7 ± 3.13 | 3.56 ± 0.18 | 65.9 ± 3.66 | 14.7 ± 13.4 | 14.3 ± 0.84 | > 100 | 50 | 12.5 | 2.5 | 5.5 | 4.8 | 6.4 | solubility [14]: 3000 µM |
